# Data: patent US6692927B2, “Bax degradation involvement in tumor survival and progression” (University of South Florida, priority 2000, dated 2004)
# Where a SMILES comes first, the peptide text is derived from it. [ ]: non-standard residue; d: D form. The star is where a group is joined. Nva = CCC[C@H](N)C(=O)O; Cbz = O=C(OCc1ccccc1)*
# Test system: SV40-transformed (VA-13) cells
# Assay: PARP cleavage, cytochrome c release and Bax accumulation in SV40-transformed fibroblasts
# Format: cell-based, human
# Text: Proteasome inhibitors activate Bax- and cytochrome c-dependent apoptosis pathway preferentially in transformed human fibroblasts. Normal human fibroblasts are more resistant to proteasome inhibitor-induced apoptosis than transformed and cancer cells (An et al., in press). This is probably due to inability of the normal cells to accumulate Bax protein in response to proteasome inhibition, and consequently failure to release cytochrome c. To test this hypothesis, both SV40-transformed and normal WI-38 cells were treated with 50 microM LLnV for up to 24 hours, followed by measurement of PARP cleavage, cytochrome c release and Bax accumulation. […] In contrast, only after 24 hours treatment, low levels of p85/PARP fragment and cytosolic cytochrome c were detected in normal WI-38 cells (FIGS. 1, A, B, lanes 8-14). […] The levels of Bax/p21 were increased at as early as 4 hours and remained high afterwards. […] The level of another band of ˜47 kDa increased at 4 hours, further increased between 6 and 12 hours, and then decreased (FIG. 1C). The p70 and p47 bands can contain ubiquitinated forms of Bax since similar polypeptides were detected by antibodies to both Bax and ubiquitin (Li et al., 1999). […] Therefore, although unable to activate the Bax- and cytochrome c-dependent apoptotic pathway in response to a low concentration of a proteasome inhibitor, normal cells are capable of undergoing Bax- and cytochrome c-independent apoptosis in response to a proteasome inhibitor at higher concentrations.
# SV40-transformed (VA-13) and normal WI-38 cells were treated with 50 microM LLnV or DMSO (letter D) for up to 24 hours, followed by measurement of PARP cleavage (A), cytochrome c release (B) and Bax accumulation (C; also see FIG. 2). Panel D, exponentially grown VA-13 cells were pretreated with 50 microM LLnV or DMSO for 1 hour, washed with methionine-free medium, and then incubated for 30 minutes in methionine-free medium plus 50 microM LLnV (or DMSO). This was followed by replacing fresh methionine-free medium containing 150 microCi/ml of [^35S]-methionine, 10% dialyzed FBS and 50 microM LLnV (or DMSO). Cells were further incubated for 6 hours, followed by preparation of [^35S]-labeled protein lysates and Bax immunoprecipitates (6A7, PharMingen). The labeled Bax bands are indicated. […] Bax-alpha subcloned into pcDNA3 was used for coupled in vitro transcription/translation in the presence of [^35S]methionine. For Bax cleavage assay, the whole cell extracts were prepared. The [^35S]-labeled Bax (0.7 microl) was incubated with 50 microg protein in assay buffer (containing 50 microM LLM and no Ca^2+) for 4 hours at 37° C. Following incubation, the samples were subjected to SDS gel electrophoresis and autoradiography.
structure (smiles),measurement,setting,value
CCC[C@@H](C=O)NC(=O)[C@H](CC(C)C)NC(=O)[C@H](CC(C)C)NC(=O)OCc1ccccc1 [LLnV] (Cbz-Leu-Leu-[Nva]-aldehyde),earliest time of increased Bax/p21 levels,50 microM LLnV,4 h
same,Bax levels,"50 microM LLnV, prior to release of cytochrome c",dramatically increased
same,time at which cleavage of PARP and release of cytochrome c were detected,"50 microM LLnV, up to 24 hours",8 h
same,Bax accumulation and apoptosis (PARP cleavage),LLnV treatment (FIG. 4B),rapidly accumulated Bax protein and subsequently induced apoptosis
